Results on 1 compound are retold here after PMC10176470, “Engaging a Non-catalytic Cysteine Residue Drives Potent and Selective Inhibition of Caspase-6” (Journal of the American Chemical Society, 2023).

Assay type in all cases: cell-based
In assay [1] the target is proteins of HEK293T cells transiently overexpressing caspase-6 (Homo sapiens, UniProt P46779). The note with it: exp_ref Probe; protein RPL28 (P46779); analysis C6.
Assay [2] has as its target proteins of HEK293T cells transiently overexpressing caspase-6 (Homo sapiens, UniProt P06744). Particulars: protein GPI (P06744), analysis C6.
Assay [3] has as its target proteins of HEK293T cells transiently overexpressing caspase-6 (Homo sapiens, UniProt Q86VP6). Particulars: exp_ref Probe; protein CAND1 (Q86VP6); analysis C6.
Assay [4] concerns the target proteins of HEK293T cells transiently overexpressing caspase-6 (Homo sapiens, UniProt P23526). The note with it: exp_ref Probe; protein AHCY (P23526); analysis C6.
Assay [5] has as its target proteins of HEK293T cells transiently overexpressing caspase-6 (Homo sapiens, UniProt Q99798). The note with it: exp_ref Probe; protein ACO2 (Q99798); analysis C6.
In assay [6] the target is T1, proteins of HEK293T cells transiently overexpressing caspase-6 (Homo sapiens, UniProt P22234).
T1 sequence (P22234 1-425): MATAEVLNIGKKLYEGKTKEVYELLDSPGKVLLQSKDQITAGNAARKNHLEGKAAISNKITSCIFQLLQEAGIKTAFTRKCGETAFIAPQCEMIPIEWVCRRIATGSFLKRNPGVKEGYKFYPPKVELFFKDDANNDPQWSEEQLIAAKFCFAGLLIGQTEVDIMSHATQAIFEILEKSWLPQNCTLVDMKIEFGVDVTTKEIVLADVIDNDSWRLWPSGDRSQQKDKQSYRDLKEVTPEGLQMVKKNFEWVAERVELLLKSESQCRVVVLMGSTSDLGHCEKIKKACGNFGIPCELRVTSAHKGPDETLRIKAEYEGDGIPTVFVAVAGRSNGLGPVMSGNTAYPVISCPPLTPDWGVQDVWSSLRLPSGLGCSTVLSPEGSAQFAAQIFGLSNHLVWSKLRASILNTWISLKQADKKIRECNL
Particulars: protein PAICS (P22234).

For assay [7], the target named is proteins of HEK293T cells transiently overexpressing caspase-6 (Homo sapiens, UniProt Q13085).
Assay [8] concerns the target proteins of HEK293T cells transiently overexpressing caspase-6 (Homo sapiens, UniProt P47756). The note with it: Probe; protein CAPZB P47756.
Assay [9] has as its target proteins of HEK293T cells transiently overexpressing caspase-6 (Homo sapiens, UniProt Q07020). Particulars: Probe; protein RPL18 Q07020.
Assay [10] deals with proteins of HEK293T cells transiently overexpressing caspase-6 (Homo sapiens, UniProt P22626). The note with it: exp_ref Probe; protein HNRNPA2B1 (P22626); analysis C6.
Chain of proteins of HEK293T cells transiently overexpressing caspase-6 (Homo sapiens, UniProt P22626) (P22626 whole entry): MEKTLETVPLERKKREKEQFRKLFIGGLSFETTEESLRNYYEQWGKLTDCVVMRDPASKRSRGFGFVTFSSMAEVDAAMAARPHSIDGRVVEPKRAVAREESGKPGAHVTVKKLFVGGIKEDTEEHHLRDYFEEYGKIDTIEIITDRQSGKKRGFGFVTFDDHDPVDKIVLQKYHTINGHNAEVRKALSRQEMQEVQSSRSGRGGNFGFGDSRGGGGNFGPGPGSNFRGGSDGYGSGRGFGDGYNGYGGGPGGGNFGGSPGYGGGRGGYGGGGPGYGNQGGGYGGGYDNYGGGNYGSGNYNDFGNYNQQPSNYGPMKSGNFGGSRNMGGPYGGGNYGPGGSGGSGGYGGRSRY
The target of assay [11] is proteins of HEK293T cells transiently overexpressing caspase-6 (Homo sapiens, UniProt P40939). The note with it: exp_ref Probe; protein HADHA (P40939); analysis C6.
Chain of proteins of HEK293T cells transiently overexpressing caspase-6 (Homo sapiens, UniProt P40939) (P40939 37-763): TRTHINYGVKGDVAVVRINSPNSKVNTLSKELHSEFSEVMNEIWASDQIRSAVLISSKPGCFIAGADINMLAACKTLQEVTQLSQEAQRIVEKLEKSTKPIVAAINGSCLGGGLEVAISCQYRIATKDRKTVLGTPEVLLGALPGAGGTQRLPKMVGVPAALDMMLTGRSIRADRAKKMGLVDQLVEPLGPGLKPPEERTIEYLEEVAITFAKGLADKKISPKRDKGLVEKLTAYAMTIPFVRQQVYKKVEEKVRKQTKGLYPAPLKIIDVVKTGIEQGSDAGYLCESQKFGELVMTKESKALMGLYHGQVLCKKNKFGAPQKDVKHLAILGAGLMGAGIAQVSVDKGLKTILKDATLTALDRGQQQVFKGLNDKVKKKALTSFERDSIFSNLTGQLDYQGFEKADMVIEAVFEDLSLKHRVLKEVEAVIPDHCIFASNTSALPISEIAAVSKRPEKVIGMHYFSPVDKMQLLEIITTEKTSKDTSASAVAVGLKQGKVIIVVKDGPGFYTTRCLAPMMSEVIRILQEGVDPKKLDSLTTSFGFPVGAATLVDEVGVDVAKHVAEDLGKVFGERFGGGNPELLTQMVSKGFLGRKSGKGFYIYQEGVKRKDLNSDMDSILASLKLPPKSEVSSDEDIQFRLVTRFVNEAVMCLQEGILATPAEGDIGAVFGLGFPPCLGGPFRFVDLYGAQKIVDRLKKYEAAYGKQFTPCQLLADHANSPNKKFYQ
Assay [12] has as its target proteins of HEK293T cells transiently overexpressing caspase-6 (Homo sapiens, UniProt P84103). The note with it: Probe; protein SRSF3 P84103.
Assay [13] deals with T2, proteins of HEK293T cells transiently overexpressing caspase-6 (Homo sapiens, UniProt P11498).
T2 sequence (P11498 21-1178): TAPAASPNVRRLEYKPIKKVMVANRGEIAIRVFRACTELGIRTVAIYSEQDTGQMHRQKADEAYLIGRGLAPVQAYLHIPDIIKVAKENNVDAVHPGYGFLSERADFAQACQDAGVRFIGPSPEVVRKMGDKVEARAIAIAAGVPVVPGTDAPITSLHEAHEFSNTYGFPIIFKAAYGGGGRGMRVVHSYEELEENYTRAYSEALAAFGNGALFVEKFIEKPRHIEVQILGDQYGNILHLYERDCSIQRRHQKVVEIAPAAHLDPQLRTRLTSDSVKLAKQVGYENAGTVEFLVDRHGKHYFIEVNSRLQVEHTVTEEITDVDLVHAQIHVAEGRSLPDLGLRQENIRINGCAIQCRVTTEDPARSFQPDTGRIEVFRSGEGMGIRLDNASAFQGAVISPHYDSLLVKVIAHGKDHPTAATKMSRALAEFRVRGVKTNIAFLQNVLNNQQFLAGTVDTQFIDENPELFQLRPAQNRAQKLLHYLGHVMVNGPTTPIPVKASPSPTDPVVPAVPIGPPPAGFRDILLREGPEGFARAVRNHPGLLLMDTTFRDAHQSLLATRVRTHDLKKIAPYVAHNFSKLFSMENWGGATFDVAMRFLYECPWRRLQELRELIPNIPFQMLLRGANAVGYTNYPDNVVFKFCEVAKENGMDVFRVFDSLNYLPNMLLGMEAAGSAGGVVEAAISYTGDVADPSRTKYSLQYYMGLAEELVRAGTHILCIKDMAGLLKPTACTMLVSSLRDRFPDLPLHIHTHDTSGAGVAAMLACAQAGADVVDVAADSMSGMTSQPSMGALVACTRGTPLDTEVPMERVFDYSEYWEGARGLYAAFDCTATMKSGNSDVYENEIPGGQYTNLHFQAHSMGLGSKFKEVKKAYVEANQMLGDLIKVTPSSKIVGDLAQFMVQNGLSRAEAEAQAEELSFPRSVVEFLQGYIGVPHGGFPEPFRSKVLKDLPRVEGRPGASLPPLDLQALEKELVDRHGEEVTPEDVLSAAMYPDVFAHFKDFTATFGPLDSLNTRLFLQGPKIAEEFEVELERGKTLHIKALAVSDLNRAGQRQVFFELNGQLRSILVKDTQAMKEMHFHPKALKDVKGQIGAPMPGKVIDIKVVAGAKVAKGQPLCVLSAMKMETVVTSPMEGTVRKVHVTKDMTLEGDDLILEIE

Chain of proteins of HEK293T cells transiently overexpressing caspase-6 (Homo sapiens, UniProt P23526) (P23526 whole entry): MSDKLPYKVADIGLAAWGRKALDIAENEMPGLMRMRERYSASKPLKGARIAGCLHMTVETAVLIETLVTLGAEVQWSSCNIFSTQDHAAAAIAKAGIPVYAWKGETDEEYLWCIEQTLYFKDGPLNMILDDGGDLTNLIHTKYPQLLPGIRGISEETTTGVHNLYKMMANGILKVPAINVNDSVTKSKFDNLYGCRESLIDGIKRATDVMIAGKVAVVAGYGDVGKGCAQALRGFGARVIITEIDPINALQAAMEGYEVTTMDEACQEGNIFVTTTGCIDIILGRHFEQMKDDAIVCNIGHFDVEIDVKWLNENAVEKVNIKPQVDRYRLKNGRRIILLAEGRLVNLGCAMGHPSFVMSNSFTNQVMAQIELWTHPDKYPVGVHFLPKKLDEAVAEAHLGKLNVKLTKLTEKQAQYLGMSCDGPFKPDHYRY
Chain of proteins of HEK293T cells transiently overexpressing caspase-6 (Homo sapiens, UniProt P47756) (P47756 whole entry): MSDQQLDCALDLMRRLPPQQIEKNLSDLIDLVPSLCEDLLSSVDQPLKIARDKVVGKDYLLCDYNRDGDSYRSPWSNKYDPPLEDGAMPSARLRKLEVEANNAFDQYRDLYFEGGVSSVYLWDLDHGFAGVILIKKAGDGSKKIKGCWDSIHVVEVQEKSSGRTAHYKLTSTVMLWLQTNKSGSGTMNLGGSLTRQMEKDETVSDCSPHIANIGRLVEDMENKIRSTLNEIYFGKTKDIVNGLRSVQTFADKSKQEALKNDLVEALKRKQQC
Chain of proteins of HEK293T cells transiently overexpressing caspase-6 (Homo sapiens, UniProt Q99798) (Q99798 28-780): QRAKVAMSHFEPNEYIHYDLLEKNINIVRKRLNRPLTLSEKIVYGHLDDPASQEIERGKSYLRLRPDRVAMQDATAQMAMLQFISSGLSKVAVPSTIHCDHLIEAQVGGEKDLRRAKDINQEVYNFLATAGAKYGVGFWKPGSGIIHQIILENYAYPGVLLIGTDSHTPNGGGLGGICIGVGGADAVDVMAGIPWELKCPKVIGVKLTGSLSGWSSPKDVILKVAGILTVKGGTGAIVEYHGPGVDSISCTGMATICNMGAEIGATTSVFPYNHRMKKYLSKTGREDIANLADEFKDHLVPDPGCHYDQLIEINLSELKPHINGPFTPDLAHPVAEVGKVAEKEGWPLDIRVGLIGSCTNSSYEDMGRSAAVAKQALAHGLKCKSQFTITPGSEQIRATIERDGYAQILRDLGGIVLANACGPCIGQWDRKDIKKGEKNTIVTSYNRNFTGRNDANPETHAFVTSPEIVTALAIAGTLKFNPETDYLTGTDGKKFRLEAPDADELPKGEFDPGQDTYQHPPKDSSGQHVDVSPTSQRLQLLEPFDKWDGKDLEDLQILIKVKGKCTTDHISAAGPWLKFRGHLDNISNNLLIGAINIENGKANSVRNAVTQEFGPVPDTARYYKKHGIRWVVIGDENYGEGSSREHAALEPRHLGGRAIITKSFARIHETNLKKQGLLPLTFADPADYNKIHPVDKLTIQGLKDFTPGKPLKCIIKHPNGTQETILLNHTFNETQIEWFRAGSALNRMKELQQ
Chain of proteins of HEK293T cells transiently overexpressing caspase-6 (Homo sapiens, UniProt Q86VP6) (Q86VP6 whole entry): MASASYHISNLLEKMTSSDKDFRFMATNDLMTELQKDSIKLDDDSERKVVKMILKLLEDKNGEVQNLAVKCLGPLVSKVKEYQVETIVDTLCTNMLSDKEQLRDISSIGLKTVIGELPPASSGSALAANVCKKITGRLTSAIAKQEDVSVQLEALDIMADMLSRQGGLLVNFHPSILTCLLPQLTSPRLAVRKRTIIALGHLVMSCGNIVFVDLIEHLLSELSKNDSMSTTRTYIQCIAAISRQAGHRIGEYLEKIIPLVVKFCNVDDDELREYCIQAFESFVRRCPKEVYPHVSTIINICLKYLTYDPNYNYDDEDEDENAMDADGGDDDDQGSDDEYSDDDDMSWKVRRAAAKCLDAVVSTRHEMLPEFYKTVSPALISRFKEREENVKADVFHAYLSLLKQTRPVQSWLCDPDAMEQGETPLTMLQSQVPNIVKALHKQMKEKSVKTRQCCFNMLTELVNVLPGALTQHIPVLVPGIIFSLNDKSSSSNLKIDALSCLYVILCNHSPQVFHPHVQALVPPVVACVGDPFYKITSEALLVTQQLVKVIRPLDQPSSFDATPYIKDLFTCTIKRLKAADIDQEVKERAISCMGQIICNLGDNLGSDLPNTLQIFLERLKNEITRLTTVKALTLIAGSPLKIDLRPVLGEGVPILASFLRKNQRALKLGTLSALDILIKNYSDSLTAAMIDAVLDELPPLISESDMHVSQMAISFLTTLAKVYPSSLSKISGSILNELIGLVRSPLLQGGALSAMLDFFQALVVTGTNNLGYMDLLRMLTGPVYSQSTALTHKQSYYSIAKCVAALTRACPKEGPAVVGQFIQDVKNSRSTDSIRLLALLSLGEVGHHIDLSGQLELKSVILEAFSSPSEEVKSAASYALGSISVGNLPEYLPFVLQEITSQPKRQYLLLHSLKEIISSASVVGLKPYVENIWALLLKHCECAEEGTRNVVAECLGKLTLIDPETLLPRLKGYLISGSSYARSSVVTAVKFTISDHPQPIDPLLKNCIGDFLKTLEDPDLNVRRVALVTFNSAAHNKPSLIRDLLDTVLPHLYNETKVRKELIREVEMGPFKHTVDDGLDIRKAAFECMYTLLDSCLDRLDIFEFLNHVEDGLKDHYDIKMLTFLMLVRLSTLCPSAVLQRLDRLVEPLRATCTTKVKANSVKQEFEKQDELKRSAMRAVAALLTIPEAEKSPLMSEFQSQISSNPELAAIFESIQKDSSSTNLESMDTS
Chain of proteins of HEK293T cells transiently overexpressing caspase-6 (Homo sapiens, UniProt P84103) (P84103 whole entry): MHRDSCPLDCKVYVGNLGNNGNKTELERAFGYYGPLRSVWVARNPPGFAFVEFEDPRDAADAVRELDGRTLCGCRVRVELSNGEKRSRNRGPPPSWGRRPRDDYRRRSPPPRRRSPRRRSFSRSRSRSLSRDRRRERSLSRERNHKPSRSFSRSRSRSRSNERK

Take `C#CCOc1ccc([C@@H]2C[C@@H](C(=O)Nc3ccc(OC(F)(F)F)cc3)CN(S(=O)(=O)C=C)C2)cc1` (relative stereo) [13-t]: the enrich.exp.med in [1] is on record as -0.3003; in assay [2] (exp_ref Probe), 2.527; in [3], 0.5563; in assay [4], 0.06916; in [5] it was -0.3317; in assay [6] (exp_ref Probe, analysis C6) it was 0.8585. Also, the enrich.exp.med is listed as -2.123 in assay [7] (Probe, protein ACACA Q13085); -0.5086 in assay [8]; -0.6313 in assay [9]; -0.1215 in assay [10]; 0.4567 in assay [11]; -0.7077 in assay [12]. Further, in [13] (Probe, protein PC P11498), the enrich.exp.med is on record as -2.146. For the same compound, the enrich.exp.med.lin is 5.762 in assay [2] (Expt Probe), 1.813 in assay [6], 0.2296 in assay [7] (protein ACACA (Q13085)) and 0.2259 in assay [13] (protein PC (P11498)). Besides, the enrich.exp.med.log2 is 2.527 in assay [2] (Expt Probe), 0.8585 in assay [6], -2.123 in assay [7] (protein ACACA (Q13085)) and -2.146 in assay [13] (protein PC (P11498)).
